The target of experiment [1] is T1, FAAH (Mus musculus (Mouse), UniProt O08914). Description: In vitro competitive activity-based protein profiling (FP-Rh), mouse FAAH. The conditions noted are these: mouse brain membrane proteome. It counts as biochemical. The procedure: (§1) In Vitro Competitive Activity-Based Protein Profiling.
(§2) Proteomes (mouse brain membrane fraction or cell lysates) ([…], 1.0 mg/mL total protein concentration) were preincubated with varying concentrations of inhibitors at 37° C. After 30 min, FP-Rh (1.0 μL, 50 μM in DMSO) was added and the mixture was incubated for another 30 min at 37° C. Reactions were quenched with SDS loading buffer (50 μL—4×) and run on SDS-PAGE.

Experiment [2] has as its target T2, ABHD6 (Mus musculus (Mouse), UniProt Q8R2Y0). Description: In vitro competitive activity-based protein profiling (FP-Rh), mouse ABHD6. Conditions: mouse brain membrane proteome. It counts as biochemical. The procedure:
as §1, §2

For experiment [3], the target named is T3, MAGL (Mus musculus (Mouse), UniProt O35678). Description: In vitro competitive activity-based protein profiling (FP-Rh), mouse MAGL. Format: biochemical. The conditions noted are these: mouse brain membrane proteome. The procedure: as §1, §2
T3 sequence (O35678 whole entry): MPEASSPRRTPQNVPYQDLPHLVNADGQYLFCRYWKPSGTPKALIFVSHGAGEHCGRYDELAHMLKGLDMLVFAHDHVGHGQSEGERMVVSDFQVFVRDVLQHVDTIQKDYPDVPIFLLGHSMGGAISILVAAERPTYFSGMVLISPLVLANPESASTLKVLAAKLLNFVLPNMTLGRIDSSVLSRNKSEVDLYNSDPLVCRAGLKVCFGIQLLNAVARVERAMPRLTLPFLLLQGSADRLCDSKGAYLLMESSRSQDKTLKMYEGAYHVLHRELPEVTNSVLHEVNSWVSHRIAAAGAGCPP
Another experiment deals with Mouse brain MAGL (Mus musculus (Mouse), UniProt O35678). Description: Mouse brain proteomes from inhibitor treated mice (oral gavage, ABPP of brain MAGL). Format: in vivo. The conditions noted are these: for Mouse brain MAGL (% inhibition at 20 mg/kg, p.o.) / Mouse brain MAGL (% inhibition at 5 mg/kg, p.o.): 4 h following administration; for ED50: po. The procedure: Preparation of Mouse Brain Proteomes from Inhibitor Treated Mice.
Chain of Mouse brain MAGL (O35678 whole entry): as above
Inhibitors were administered to wild-type C57Bl/6J by oral gavage in a vehicle of polyethylene glycol.

For another experiment, the target named is Human MAGL (Homo sapiens (Human), UniProt Q99685). Description: Competitive ABPP with recombinant human MAGL expressed in HEK293T cells. It counts as biochemical. The method, then:
as §2
Recombinant Expression of Human MAGL in HEK293T Cells.
Cell lysates were diluted with mock proteomes for use in competitive ABPP experiments.

The target of experiment [4] is T1, FAAH. The experiment can be described thus: Competitive ABPP, % inhibition at 1 uM, FAAH. Format: biochemical. Summed up:
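Mouse brain membrane proteome or cell lysate (1.0 mg/mL protein) preincubated 30 min at 37° C with inhibitor, then labelled 30 min at 37° C with FP-Rh probe. Resolved by SDS-PAGE; activity from in-gel fluorescence intensity of FAAH band.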

Experiment [5] has as its target T2, ABHD6. The experiment can be described thus: Competitive ABPP, % inhibition at 1 uM, ABHD6. It counts as biochemical. The procedure:
as §1, §2

For experiment [6], the target named is T3, MAGL. The experiment can be described thus: Competitive ABPP, % inhibition at 1 uM, MAGL. It counts as biochemical. The procedure:
as §1, §2

For orientation: IC50 means the point on the concentration scale where inhibition reaches its midpoint. For orientation: ED50 means the dose at which the effect has come halfway, by size or by number of responders. As usually defined, the inhibition is the drop in the measured response relative to a control, in per cent.

T1 sequence (O08914 whole entry): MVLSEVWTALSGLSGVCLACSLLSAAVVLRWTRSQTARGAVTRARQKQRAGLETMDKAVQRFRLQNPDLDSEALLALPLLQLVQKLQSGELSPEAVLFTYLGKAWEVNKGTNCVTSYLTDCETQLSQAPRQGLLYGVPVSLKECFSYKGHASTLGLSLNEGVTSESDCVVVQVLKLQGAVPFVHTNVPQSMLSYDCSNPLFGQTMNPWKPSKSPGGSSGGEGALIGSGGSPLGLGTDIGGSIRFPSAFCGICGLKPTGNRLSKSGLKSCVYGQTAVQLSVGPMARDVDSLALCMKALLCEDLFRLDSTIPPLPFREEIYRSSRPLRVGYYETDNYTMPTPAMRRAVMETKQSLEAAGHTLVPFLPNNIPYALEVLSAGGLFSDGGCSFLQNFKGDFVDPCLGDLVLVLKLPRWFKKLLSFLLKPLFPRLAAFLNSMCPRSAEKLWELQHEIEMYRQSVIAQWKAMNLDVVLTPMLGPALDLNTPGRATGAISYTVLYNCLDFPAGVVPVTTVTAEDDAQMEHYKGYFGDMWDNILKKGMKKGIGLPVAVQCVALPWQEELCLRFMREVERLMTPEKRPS
Chain of Human MAGL (Q99685 whole entry): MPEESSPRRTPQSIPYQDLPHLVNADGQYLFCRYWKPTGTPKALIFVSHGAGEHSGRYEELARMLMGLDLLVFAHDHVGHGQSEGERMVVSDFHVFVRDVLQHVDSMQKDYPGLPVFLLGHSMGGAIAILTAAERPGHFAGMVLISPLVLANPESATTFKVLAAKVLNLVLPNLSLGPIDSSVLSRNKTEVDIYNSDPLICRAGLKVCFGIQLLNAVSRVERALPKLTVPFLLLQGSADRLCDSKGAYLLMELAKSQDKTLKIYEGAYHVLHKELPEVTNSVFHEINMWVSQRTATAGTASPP
T2 sequence (Q8R2Y0 whole entry): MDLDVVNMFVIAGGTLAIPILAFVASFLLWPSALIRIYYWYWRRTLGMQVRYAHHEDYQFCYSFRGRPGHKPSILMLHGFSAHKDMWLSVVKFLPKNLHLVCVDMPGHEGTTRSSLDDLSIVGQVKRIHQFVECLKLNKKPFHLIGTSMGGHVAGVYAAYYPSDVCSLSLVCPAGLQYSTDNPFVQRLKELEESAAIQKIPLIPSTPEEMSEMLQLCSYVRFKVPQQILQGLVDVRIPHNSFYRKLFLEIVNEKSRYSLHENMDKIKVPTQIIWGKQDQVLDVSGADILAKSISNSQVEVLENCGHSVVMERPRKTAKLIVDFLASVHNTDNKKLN

Turning to `O=C(OC(C(F)(F)F)C(F)(F)F)N1CCC(C(O)(c2ccc3c(c2)OCO3)c2ccc3c(c2)OCO3)CC1` [Example 1a, 1,1,1,3,3,3-hexafluoropropan-2-yl 4-(bis(benzo[d][1,3]dioxol-5-yl)(hydroxy)methyl)piperidine-1-carboxylate], the IC50 on FAAH [1] (competitive ABPP) is above 10000 nM; at ABHD6 [2] (competitive ABPP) it was above 1000 nM; at MAGL [3] (competitive ABPP), below 100 nM; on Human MAGL (hMAGL in HEK293T cell lysates), below 100 nM. The “Mouse brain MAGL (% inhibition at 20 mg/kg, p.o.)” value on Mouse brain MAGL is above 95%.
With `O=C(OC(C(F)(F)F)C(F)(F)F)N1CCC(C(c2ccc3c(c2)OCO3)c2ccc3c(c2)OCO3)CC1` [Example 1c, 1,1,1,3,3,3-hexafluoropropan-2-yl 4-(bis(benzo[d][1,3]dioxol-5-yl)methyl)piperidine-1-carboxylate], the IC50 is above 10000 nM at FAAH [1] (competitive ABPP), above 1000 nM at ABHD6 [2] (competitive ABPP), below 100 nM at MAGL [3] (competitive ABPP) and below 100 nM on Human MAGL (hMAGL in HEK293T cell lysates). The “Mouse brain MAGL (% inhibition at 20 mg/kg, p.o.)” value on Mouse brain MAGL was above 95%.
With `O=C(OC(C(F)(F)F)C(F)(F)F)N1CCN(C(c2ccc(F)cc2)c2ccc(F)cc2)CC1` [Example 2a, 1,1,1,3,3,3-hexafluoropropan-2-yl 4-(bis(4-fluorophenyl)methyl)-piperazine-1-carboxylate], the IC50 is above 10000 nM on FAAH [1] (competitive ABPP), above 1000 nM at ABHD6 [2] (competitive ABPP), below 100 nM at MAGL [3] (competitive ABPP) and below 100 nM on Human MAGL (hMAGL in HEK293T cell lysates). The “Mouse brain MAGL (% inhibition at 20 mg/kg, p.o.)” value at Mouse brain MAGL is above 95%.
`O=C(OC(C(F)(F)F)C(F)(F)F)N1CCN(C(c2ccc(Br)cc2)c2ccc(Br)cc2)CC1` [Example 2c, 1,1,1,3,3,3-hexafluoropropan-2-yl 4-(bis(4-bromophenyl)methyl)-piperazine-1-carboxylate]: the IC50 was above 10000 nM on FAAH [1] (competitive ABPP), above 1000 nM at ABHD6 [2] (competitive ABPP), 100 to 1000 nM at MAGL [3] (competitive ABPP) and below 100 nM at Human MAGL (hMAGL in HEK293T cell lysates). Also, the “Mouse brain MAGL (% inhibition at 20 mg/kg, p.o.)” value at Mouse brain MAGL came out at 94%.
For `O=C(OC(C(F)(F)F)C(F)(F)F)N1CCN(C(c2ccc3c(c2)OCO3)c2ccc3c(c2)OCO3)CC1` [Example 2d, 1,1,1,3,3,3-hexafluoropropan-2-yl 4-(bis(benzo[d][1,3]dioxol-5-yl)methyl)piperazine-1-carboxylate], in that order: above 10000 nM, 100 to 1000 nM, below 100 nM, below 100 nM and above 95%.
For `O=C(OC(C(F)(F)F)C(F)(F)F)N1CCN(Cc2cccc(Oc3ccccc3)c2)CC1` [Example 3a, 1,1,1,3,3,3-hexafluoropropan-2-yl 4-(3-phenoxybenzyl)piperazine-1-carboxylate], in that order: above 10000 nM, below 100 nM, below 100 nM, below 100 nM and above 95%.
For `CN(Cc1cccc(-c2cccnc2)c1)C(=O)OC(C(F)(F)F)C(F)(F)F` [Example 3g, 1,1,1,3,3,3-hexafluoropropan-2-yl methyl(3-(pyridin-3-yl)benzyl)-carbamate], in that order: above 10000 nM, below 100 nM, 100 to 1000 nM, below 100 nM and 93%.
For the compound `CC(C)(C)c1ccc(S(=O)(=O)N2CCN(C(=O)OC(C(F)(F)F)C(F)(F)F)CC2)cc1` [Example 4c, 1,1,1,3,3,3-hexafluoropropan-2-yl 4-((4-(tert-butyl)phenyl)sulfonyl)-piperazine-1-carboxylate], the 50% inhibitory concentration (IC50) was above 10000 nM at FAAH [1] (competitive ABPP), above 1000 nM on ABHD6 [2] (competitive ABPP), below 100 nM at MAGL [3] (competitive ABPP) and below 100 nM at Human MAGL (hMAGL in HEK293T cell lysates). Further, the “Mouse brain MAGL (% inhibition at 20 mg/kg, p.o.)” value at Mouse brain MAGL is recorded as above 95%.
`O=C(OC(C(F)(F)F)C(F)(F)F)N1CCN(Cc2ccc(Cl)cc2N2CCN3CCC[C@@H]3C2)CC1` [Example 9bi, (R)-1,1,1,3,3,3-hexafluoropropan-2-yl 4-(4-chloro-2-(hexahydropyrrolo[1,2-a]pyrazin-2(1H)-yl)benzyl)piperazine-1-carboxylate]: the IC50 at FAAH [1] (competitive ABPP (Table 7)) is above 10000 nM; at ABHD6 [2] (competitive ABPP (Table 7)) it was above 1000 nM; at MAGL [3] (competitive ABPP (Table 7)), below 100 nM. Moreover, the “Mouse brain MAGL (% inhibition at 5 mg/kg, p.o.)” value at Mouse brain MAGL stood at 50%.
Take `CS(=O)(=O)N1CCN(c2cc(Cl)ccc2CN2CCN(C(=O)OC(C(F)(F)F)C(F)(F)F)CC2)CC1` [Example 9bj, 1,1,1,3,3,3-hexafluoropropan-2-yl 4-(4-chloro-2-(4-(methylsulfonyl)piperazin-1-yl)benzyl)piperazine-1-carboxylate]: the IC50 on FAAH [1] (competitive ABPP (Table 7)) is above 10000 nM; at ABHD6 [2] (competitive ABPP (Table 7)), 100 to 1000 nM; at MAGL [3] (competitive ABPP (Table 7)) it was below 100 nM. In addition, the “Mouse brain MAGL (% inhibition at 5 mg/kg, p.o.)” value on Mouse brain MAGL came to 75%.
Take `O=C(OC(C(F)(F)F)C(F)(F)F)N1CCN(Cc2cccc(F)c2N2CCOCC2)CC1` [Example 9d, 1,1,1,3,3,3-hexafluoropropan-2-yl 4-[[3-fluoro-2-(morpholin-4-yl)phenyl]methyl]piperazine-1-carboxylate]: the values for the IC50 on FAAH [1] (competitive ABPP (Table 7)), on ABHD6 [2] (competitive ABPP (Table 7)) and at MAGL [3] (competitive ABPP (Table 7)) were above 10000 nM, above 1000 nM and below 100 nM, respectively. Further, the 50% effective dose (ED50) at Mouse brain MAGL is below 4 mg/kg.
Consider `O=C(OC(C(F)(F)F)C(F)(F)F)N1CCN(Cc2cc(Cl)ccc2N2CCCC2)CC1` [Example 9n, 1,1,1,3,3,3-hexafluoropropan-2-yl 4-[[5-chloro-2-(pyrrolidin-1-yl)phenyl]methyl]piperazine-1-carboxylate], for which the 50% inhibitory concentration (IC50) is above 10000 nM on FAAH [1] (competitive ABPP (Table 7)), above 1000 nM on ABHD6 [2] (competitive ABPP (Table 7)) and below 100 nM on MAGL [3] (competitive ABPP (Table 7)). Moreover, the results for the inhibition at 1 µM at FAAH [4], on ABHD6 [5] and at MAGL [6] were below 25%, 25 to 75% and 25 to 75%, respectively. The “Mouse brain MAGL (% inhibition at 5 mg/kg, p.o.)” value at Mouse brain MAGL is recorded as 75%.
On to `COc1cc(N2CCOCC2)ccc1CN1CCN(C(=O)OC(C(F)(F)F)C(F)(F)F)CC1` [Example 9s, 1,1,1,3,3,3-hexafluoropropan-2-yl 4-(2-methoxy-4-morpholinobenzyl)piperazine-1-carboxylate], for which the IC50 at FAAH [1] (competitive ABPP (Table 7)) is above 6250 nM; on ABHD6 [2] (competitive ABPP (Table 7)) it was 100 to 1000 nM; at MAGL [3] (competitive ABPP (Table 7)), below 100 nM; at Human MAGL (hMAGL in HEK293T cell lysates (Table 7)), below 100 nM. Also, the 50% effective dose (ED50) at Mouse brain MAGL was below 4 mg/kg.
Turning to `CC(C)n1cc(CN2CCN(C(=O)OC(C(F)(F)F)C(F)(F)F)CC2)c(-c2ccccc2Cl)n1` [Example 10i, 1,1,1,3,3,3-hexafluoropropan-2-yl 4-[[3-(2-chlorophenyl)-1-(propan-2-yl)-1H-pyrazol-4-yl]methyl]piperazine-1-carboxylate], the IC50 at FAAH [1] (competitive ABPP (Table 7)) was above 10000 nM; at ABHD6 [2] (competitive ABPP (Table 7)) it was 100 to 1000 nM; on MAGL [3] (competitive ABPP (Table 7)) it was below 100 nM. For the same compound, the “Mouse brain MAGL (% inhibition at 5 mg/kg, p.o.)” value on Mouse brain MAGL is recorded as 75%.
For `O=C(OC(C(F)(F)F)C(F)(F)F)N1CCN(Cc2ccc(-c3ccccc3)cc2C(=O)N2CCCC2)CC1` [Example 11y, 1,1,1,3,3,3-hexafluoropropan-2-yl 4-([4-phenyl-2-[(pyrrolidin-1-yl)carbonyl]phenyl]methyl)piperazine-1-carboxylate], in that order: above 10000 nM, above 1000 nM, below 100 nM and 75%.

Source of the values: US9133148B2, “Carbamate compounds and of making and using same” (Abide Therapeutics, Inc., priority 2012, dated 2015).
